# pIC50: −log10 of the molar value.
# Tested on: SW1271 complex spheroids with HUVEC/MSC, growth, % test/control
# Assay: Anticancer human tumor SW1271 cell line growth inhibition [AhR];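 note: spheroids exposed to agents for 7 days before readout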
# Details: for pIC50: curve of first compound; for viability, T/C: stronger effect = lower value
# Procedure, shortened: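 Complex tumor spheroids co-cultured with HUVEC and human MSC stroma; AhR antagonists tested in combination with standard-of-care and investigational agents. Top concentration at or near clinical Cmax (else 10 microM), half-log dilutions; growth expressed as percent test/control.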
# [1] = second compound 0.1 µM, first compound 0.00949 µM
# [2] = second compound 0.1 µM, first compound 0.03 µM
# [3] = second compound 0.1 µM, first compound 0.0949 µM
# [4] = second compound 0.1 µM, first compound 0.3 µM
# [5] = second compound 0.1 µM, first compound 0.949 µM
# [6] = second compound 0.1 µM, first compound 3 µM
# [7] = second compound 0.316 µM, first compound 0.00949 µM
# [8] = second compound 0.316 µM, first compound 0.03 µM
# [9] = second compound 0.316 µM, first compound 0.0949 µM
# [10] = second compound 0.316 µM, first compound 0.3 µM
# [11] = second compound 0.316 µM, first compound 0.949 µM
# [12] = second compound 0.316 µM, first compound 3 µM
# [13] = second compound 1 µM, first compound 0.00949 µM
# [14] = second compound 1 µM, first compound 0.03 µM
# [15] = second compound 1 µM, first compound 0.0949 µM
# [16] = second compound 1 µM, first compound 0.3 µM
# [17] = second compound 1 µM, first compound 0.949 µM
# [18] = second compound 1 µM, first compound 3 µM
# [19] = second compound 3.16 µM, first compound 0.00949 µM
# [20] = second compound 3.16 µM, first compound 0.03 µM
# [21] = second compound 3.16 µM, first compound 0.0949 µM
# [22] = second compound 3.16 µM, first compound 0.3 µM
# [23] = second compound 3.16 µM, first compound 0.949 µM
# [24] = second compound 3.16 µM, first compound 3 µM
# [25] = second compound 10 µM, first compound 0.00949 µM
# [26] = second compound 10 µM, first compound 0.03 µM
# [27] = second compound 10 µM, first compound 0.0949 µM
# [28] = second compound 10 µM, first compound 0.3 µM
# [29] = second compound 10 µM, first compound 0.949 µM
# [30] = second compound 10 µM, first compound 3 µM
structure (smiles),measurement,setting,value
CC1COCCN1c1cc(C2(S(C)(=N)=O)CC2)nc(-c2ccnc3[nH]ccc23)n1 (stereo not given) + CC(CO)NC(=O)c1cc(-c2ccc(Cl)cc2)nn(-c2cnn(C)c2)c1=O,pIC50,second compound 0.1 µM,< 5.00
same,pIC50,second compound 0.316 µM,< 5.00
same,pIC50,second compound 1 µM,< 5.00
same,pIC50,second compound 3.16 µM,5.05
same,pIC50,second compound 10 µM,< 5.00
same,"viability, T/C","second compound 0.1 µM, first compound 0.0316 µM",114%
same,"viability, T/C","second compound 0.1 µM, first compound 0.1 µM",92.9%
same,"viability, T/C","second compound 0.1 µM, first compound 0.316 µM",77.6%
same,"viability, T/C","second compound 0.1 µM, first compound 1 µM",88.9%
same,"viability, T/C","second compound 0.1 µM, first compound 3.16 µM",72.7%
same,"viability, T/C","second compound 0.1 µM, first compound 10 µM",59.9%
same,"viability, T/C","second compound 0.316 µM, first compound 0.0316 µM",91.3%
same,"viability, T/C","second compound 0.316 µM, first compound 0.1 µM",96.7%
same,"viability, T/C","second compound 0.316 µM, first compound 0.316 µM",90.3%
same,"viability, T/C","second compound 0.316 µM, first compound 1 µM",73.2%
same,"viability, T/C","second compound 0.316 µM, first compound 3.16 µM",56.1%
same,"viability, T/C","second compound 0.316 µM, first compound 10 µM",50.9%
same,"viability, T/C","second compound 1 µM, first compound 0.0316 µM",80.7%
same,"viability, T/C","second compound 1 µM, first compound 0.1 µM",100%
same,"viability, T/C","second compound 1 µM, first compound 0.316 µM",98.5%
same,"viability, T/C","second compound 1 µM, first compound 1 µM",77%
same,"viability, T/C","second compound 1 µM, first compound 3.16 µM",68.3%
same,"viability, T/C","second compound 1 µM, first compound 10 µM",57.1%
same,"viability, T/C","second compound 3.16 µM, first compound 0.0316 µM",98.3%
same,"viability, T/C","second compound 3.16 µM, first compound 0.1 µM",83.4%
same,"viability, T/C","second compound 3.16 µM, first compound 0.316 µM",86.4%
same,"viability, T/C","second compound 3.16 µM, first compound 1 µM",73.3%
same,"viability, T/C","second compound 3.16 µM, first compound 3.16 µM",61.1%
same,"viability, T/C","second compound 3.16 µM, first compound 10 µM",48.5%
same,"viability, T/C","second compound 10 µM, first compound 0.0316 µM",80%
same,"viability, T/C","second compound 10 µM, first compound 0.1 µM",67.6%
same,"viability, T/C","second compound 10 µM, first compound 0.316 µM",72%
same,"viability, T/C","second compound 10 µM, first compound 1 µM",70.6%
same,"viability, T/C","second compound 10 µM, first compound 3.16 µM",69.2%
same,"viability, T/C","second compound 10 µM, first compound 10 µM",62.9%
CCN(c1cc(-c2ccc(CN3CCOCC3)cc2)cc(C(=O)NCc2c(C)cc(C)[nH]c2=O)c1C)C1CCOCC1 + CC(CO)NC(=O)c1cc(-c2ccc(Cl)cc2)nn(-c2cnn(C)c2)c1=O,pIC50,second compound 0.1 µM,< 5.52
same,pIC50,second compound 0.316 µM,< 5.52
same,pIC50,second compound 1 µM,< 5.52
same,pIC50,second compound 3.16 µM,< 5.52
same,pIC50,second compound 10 µM,< 5.52
same,"viability, T/C",[1],122%
same,"viability, T/C",[2],117%
same,"viability, T/C",[3],106%
same,"viability, T/C",[4],97.2%
same,"viability, T/C",[5],102%
same,"viability, T/C",[6],91.8%
same,"viability, T/C",[7],101%
same,"viability, T/C",[8],108%
same,"viability, T/C",[9],120%
same,"viability, T/C",[10],113%
same,"viability, T/C",[11],110%
same,"viability, T/C",[12],112%
same,"viability, T/C",[13],86.6%
same,"viability, T/C",[14],105%
same,"viability, T/C",[15],119%
same,"viability, T/C",[16],94.5%
same,"viability, T/C",[17],105%
same,"viability, T/C",[18],110%
same,"viability, T/C",[19],91.9%
same,"viability, T/C",[20],88%
same,"viability, T/C",[21],103%
same,"viability, T/C",[22],89.3%
same,"viability, T/C",[23],106%
same,"viability, T/C",[24],90.3%
same,"viability, T/C",[25],91.7%
same,"viability, T/C",[26],94.5%
same,"viability, T/C",[27],81.3%
same,"viability, T/C",[28],84.9%
same,"viability, T/C",[29],74.1%
same,"viability, T/C",[30],79.4%
Nc1ncn(C2CC(O)C(CO)S2)c(=O)n1 (stereo not given) + CC(CO)NC(=O)c1cc(-c2ccc(Cl)cc2)nn(-c2cnn(C)c2)c1=O,pIC50,second compound 0.1 µM,< 6.52
same,pIC50,second compound 0.316 µM,< 6.52
same,pIC50,second compound 1 µM,< 6.52
same,pIC50,second compound 3.16 µM,< 6.52
same,pIC50,second compound 10 µM,< 6.52
same,"viability, T/C","second compound 0.1 µM, first compound 0.000949 µM",110%
same,"viability, T/C","second compound 0.1 µM, first compound 0.003 µM",98.1%
same,"viability, T/C",[1],107%
same,"viability, T/C",[2],102%
same,"viability, T/C",[3],83.4%
same,"viability, T/C",[4],87.3%
same,"viability, T/C","second compound 0.316 µM, first compound 0.000949 µM",103%
same,"viability, T/C","second compound 0.316 µM, first compound 0.003 µM",87%
same,"viability, T/C",[7],116%
same,"viability, T/C",[8],113%
same,"viability, T/C",[9],74%
same,"viability, T/C",[10],68.9%
same,"viability, T/C","second compound 1 µM, first compound 0.000949 µM",93.4%
same,"viability, T/C","second compound 1 µM, first compound 0.003 µM",77.5%
same,"viability, T/C",[13],92%
same,"viability, T/C",[14],96%
same,"viability, T/C",[15],99.2%
same,"viability, T/C",[16],80.4%
same,"viability, T/C","second compound 3.16 µM, first compound 0.000949 µM",93%
same,"viability, T/C","second compound 3.16 µM, first compound 0.003 µM",76.5%
same,"viability, T/C",[19],83.5%
same,"viability, T/C",[20],82%
same,"viability, T/C",[21],84.8%
same,"viability, T/C",[22],68.1%
same,"viability, T/C","second compound 10 µM, first compound 0.000949 µM",87.3%
same,"viability, T/C","second compound 10 µM, first compound 0.003 µM",78.1%
same,"viability, T/C",[25],80.9%
same,"viability, T/C",[26],77.4%
same,"viability, T/C",[27],84.2%
same,"viability, T/C",[28],68%
O=C(C=Cn1cnc(-c2cc(C(F)(F)F)cc(C(F)(F)F)c2)n1)NNc1cnccn1 + CC(CO)NC(=O)c1cc(-c2ccc(Cl)cc2)nn(-c2cnn(C)c2)c1=O,pIC50,second compound 0.1 µM,6.00
same,pIC50,second compound 0.316 µM,6.04
same,pIC50,second compound 1 µM,6.20
same,pIC50,second compound 3.16 µM,6.35
same,pIC50,second compound 10 µM,6.12
same,"viability, T/C",[1],108%
same,"viability, T/C",[2],76.7%
same,"viability, T/C",[3],93.1%
same,"viability, T/C",[4],70.5%
same,"viability, T/C",[5],45.6%
same,"viability, T/C",[6],34.3%
same,"viability, T/C",[7],74.4%
same,"viability, T/C",[8],79.2%
same,"viability, T/C",[9],72.3%
same,"viability, T/C",[10],63.7%
same,"viability, T/C",[11],50%
same,"viability, T/C",[12],31.7%
same,"viability, T/C",[13],73.9%
same,"viability, T/C",[14],86.7%
same,"viability, T/C",[15],70.8%
same,"viability, T/C",[16],60.4%
same,"viability, T/C",[17],44%
same,"viability, T/C",[18],40.5%
same,"viability, T/C",[19],85.2%
same,"viability, T/C",[20],75.3%
same,"viability, T/C",[21],87.3%
same,"viability, T/C",[22],57.4%
same,"viability, T/C",[23],34.8%
same,"viability, T/C",[24],37.8%
same,"viability, T/C",[25],79%
same,"viability, T/C",[26],71.7%
same,"viability, T/C",[27],68.8%
same,"viability, T/C",[28],92.2%
same,"viability, T/C",[29],43.2%
same,"viability, T/C",[30],27%

# Source: PubChem BioAssay AID1919017 (Molecular Pharmacology Branch, DTP, NCI, 2023)
